For data set [1], the target named is GDP-KRAS^G12C::SOS1 interaction (Homo sapiens, UniProt P01116, G12C). In words: biochemical.
The subject of the next data set is GP2D cells. In words: GP2D proliferation assay. It is filed as cell-based. Particulars: KRAS^G12D mutation.
Another data set deals with LS513 cells. The data set can be described thus: LS513 proliferation assay. It is filed as cell-based. The following applies: KRAS^G12D mutation.
A short description of data set [2]: Body weight changes in the NCI-H358 efficacy study. The following applies: both dose groups; less pronounced for the low dose group.
The next data set has as its system p-ERK. The data set can be described thus: pERK1/2 immunoassay. Particulars: 40 mg/kg ip daily x3.
In another data set the test system is cleaved caspase 3. The data set can be described thus: Cleaved caspase-3 immunoassay. The following applies: 40 mg/kg ip daily x3.

GDP-KRAS^G12C::SOS1 interaction, sequence (P01116 1-169 isoform P01116-2 G12C limits assumed): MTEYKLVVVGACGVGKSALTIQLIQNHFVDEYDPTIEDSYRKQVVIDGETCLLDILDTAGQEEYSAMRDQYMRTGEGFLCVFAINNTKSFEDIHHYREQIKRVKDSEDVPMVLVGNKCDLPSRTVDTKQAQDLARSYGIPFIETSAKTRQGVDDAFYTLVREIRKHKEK

As for `C=CC(=O)N1CCN(c2cccc(-c3noc([C@@]4(C)CCCc5sc(N)c(C#N)c54)n3)c2)CC1` [Compound 22, (4S)-2-Amino-4-methyl-4-(3-{3-[4-(prop-2-enoyl)piperazin-1-yl]phenyl}-1,2,4-oxadiazol-5-yl)-4,5,6,7-tetrahydro-1-benzothiophene-3-carbonitrile], in data set [1], the concentration for half-maximal inhibition (IC50) was roughly 3 µM.
Take `C=CC(=O)N1CCN(c2cc(-c3noc([C@@]4(C)CCCc5sc(N)c(C#N)c54)n3)nc(N3CCN(C)C[C@@H]3C)c2)CC1` [BI-0474, (4S)-2-Amino-4-(3-{6-[(2S)-2,4-dimethylpiperazin-1-yl]-4-[4-(prop-2-enoyl)piperazin-1-yl]pyridin-2-yl}-1,2,4-oxadiazol-5-yl)-4-methyl-4,5,6,7-tetrahydro-1-benzothiophene-3-carbonitrile]: the “concentration above which antiproliferative effect was observed, GP2D cells” value in the data set on GP2D cells is “above 4 μM”. In addition, the “concentration above which antiproliferative effect was observed, LS513 cells” value in the data set with LS513 cells is given as “above 4 μM”. Also, the “body weight change compared to vehicle” value in data set [2] is “some body weight loss”. Moreover, the entries for the “reduction of p-ERK levels” value in the data set on p-ERK (2 h post last dose) and in the data set on p-ERK (6 h post last dose) were “five-fold” and “six-fold”, respectively. The “induction of apoptosis (cleaved caspase 3) detectable in treated samples” value in the data set with cleaved caspase 3 (2 h post-dose on day 3) is recorded as “one out of five”; with cleaved caspase 3 (6 h post-dose on day 3) it was “all five”.
